Data reported in patent US5925618A, “Peptides useful as somatostatin antagonists” (American Cyanamid Company, priority 1998, dated 1999).
Square brackets hold non-standard residues; d marks the D form. Peptide text beside a SMILES is read from it.

Molecular target: T1, rat SSTR2 (Rattus norvegicus, UniProt P30680)
T1 construct: expressed in transfected cells; host or cells: GH4C1 rat pituitary tumor cells
Test: cAMP accumulation in forskolin-stimulated GH4 C1/SSTR2 cells
Format: cell-based
From the text: A primary effect of SRIF upon mammalian cells is the reduction of cyclic adenosine 3',5'-monophosphate(cAMP) levels, via inhibition of adenylyl cyclase. This is the basis of a common assay for SRIF agonists and antagonists, whereby SRIF agonists reduce artificially stimulated cAMP levels, and SRIF antagonists reverse the effect of SRIF. The rat pituitary tumor cell line GH4 C1 predominantly expresses SSTR2, and responds to SRIF and to forskolin, a stimulator of adenylate cyclase (see C. M. Eppler, et al., J. Biol. Chem., 267, 15603-15612, 1992, incorporated herein by reference). A highly sensitive assay for SRIF agonists and antagonists results from additionally transfecting GH4 C1 cells with the cloned rat SSTR2, (see L. A. Price, et al., Molecular and Cellular Biology, 15, 6188-6195, 1995, incorporated herein by reference). This increases the response to SRIF and provides a greater dynamic range for the measurement of SRIF antagonist activity.
Stimulation of cells. GH4 C1 /SSTR2 cells, grown in DMEM with 10% bovine serum, are released from a tissue culture dish by incubation for several minutes at 37° C. with PBS containing 0.5 mM EDTA. Cells are washed in induction buffer (PBS containing 100 μM IBMX (an inhibitor of cAMP breakdown) and 2 mM CaCl2) at room temperature, and resuspended at 2×10^6 /mL in induction buffer. Into each well of a 96-well tray are added 50 μL of a 2× concentration of stimulants in induction buffer. These include (at final concentration) 1.25 μM forskolin, 100 nM SRIF or 10 nM of the SSTR2-selective agonist MK678 and test peptides at various concentrations. To initiate stimulation of the cells, 50 μL (100,000) cells are added to each well, mixed by shaking 10 seconds on a plate shaker and placed at 37° C. for 15 minutes. Stimulation is arrested and cells are lysed by adding 15 μL 0.33N HCl to each well and incubating the plate for 30 minutes at 37° C. Samples are neutralized by addition of 15 μL 0.25N NaOH/50 mM Hepes pH 7.4. Baseline cAMP levels are determined in samples with no added forskolin or SRIF, and each treatment is performed in triplicate.
cAMP assay. To measure accumulated cAMP in the samples, a radioimmunoassay is employed. The scintillation proximity assay (SPA, Amersham, Arlington Heights, Ill.) allows the rapid measurement of ^125 I cAMP bound to a specific antibody without separating bound radioligand from free radioligand. Each of the following reagents (50 μL) are added per well in a 96-well tray: supernatants from the cell stimulation; ^125 I cAMP; SPA beads conjugated to monkey anti-rabbit IgG antibodies; and rabbit anti-cAMP antibodies. For the standard curve, known amounts of cAMP (0.2-12.8 pmol) are added in place of cell supernatants. The 96-well tray is sealed, shaken at room temperature overnight and measured for bound radioligand in a MicroBeta liquid scintillation counter (Wallac, Gaithersburg, Md.). The standard curve is determined for each experiment by performing a nonlinear regression (exponential decay) analysis of cpm measured for the cAMP standards vs. their log concentrations, and test sample values are determined by using Prism software (Graphpad Software Inc., San Diego, Calif.) and are shown in Table II and FIG. 1. FIG. I illustrates the antagonist activity of Peptide 1.
The intrinsic activity of an SRIF antagonist is the percent reversal of the SSTR2, activation by SRIF or MK678, wherein 0% is defined by cAMP levels in samples treated with forskolin plus SRIF or MK678 and 100% is the cAMP level measured after treatment with forskolin alone. Therefore, increased intrinsic activity of a test compound indicates increased antagonist activity of said test compound.
FIG. […]
An inverse agonist is a compound that is not only a pure antagonist (i.e. lacking agonist activity), but also blocks the constitutive activity of an unoccupied receptor. One indication of inverse agonist activity is the ability of a SRIF antagonist to increase cAMP levels in the absence of added SRIF. […]

T1 sequence (P30680 whole entry): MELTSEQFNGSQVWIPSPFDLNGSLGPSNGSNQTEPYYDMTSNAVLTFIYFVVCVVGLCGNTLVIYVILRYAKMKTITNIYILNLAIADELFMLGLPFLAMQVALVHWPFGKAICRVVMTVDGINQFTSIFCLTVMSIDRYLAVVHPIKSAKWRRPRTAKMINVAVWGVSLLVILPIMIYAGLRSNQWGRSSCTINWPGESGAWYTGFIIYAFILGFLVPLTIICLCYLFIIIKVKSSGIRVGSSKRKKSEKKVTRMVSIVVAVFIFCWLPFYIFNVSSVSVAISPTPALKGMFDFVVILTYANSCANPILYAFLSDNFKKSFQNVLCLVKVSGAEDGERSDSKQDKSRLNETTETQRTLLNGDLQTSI

SMILES: CC[C@@H](C)[C@@H](NC(=O)[C@@H](Cc1ccccc1)NC(=O)[C@@H](Cc1c[nH]cn1)NC(C)=O)C(=O)N[C@H](CCCNC(=N)N)C(=O)N[C@H](Cc1c[nH]c2ccccc12)C(=O)N[C@H](Cc1ccccc1)C(N)=O [Peptide 1, h-f-i-r-w-f] (Ac-[dH][dF][dI][dR][dW][dF]-NH2)
- cAMP (Forskolin 1.25 μM + MK 678 10 nM, Peptide 1 1 μM): 1.14 pM per 4 × 10^4 cells
- cAMP (Forskolin 1.25 μM + MK 678 10 nM, Peptide 1 10 μM): 2.69 pM per 4 × 10^4 cells
- cAMP (Forskolin 1.25 μM + MK 678 10 nM, Peptide 1 50 μM): 3.32 pM per 4 × 10^4 cells
- cAMP (Forskolin 1.25 μM, no MK 678, Peptide 1 1 μM): 2.57 pM per 4 × 10^4 cells
- cAMP (Forskolin 1.25 μM, no MK 678, Peptide 1 10 μM): 3.05 pM per 4 × 10^4 cells
- cAMP (Forskolin 1.25 μM, no MK 678, Peptide 1 50 μM): 3.33 pM per 4 × 10^4 cells
- mode of antagonism from agonist dose response curves (S-14 or MK678 dose response with or without peptide 1): directly competing with the SRIF agonists
- forskolin-stimulated cAMP levels in the absence of SRIF (inverse agonist activity) (no added SRIF): causes an increase in forskolin-stimulated cAMP levels even in the absence of SRIF
